Several values for one entry are separate records, joined by “and”; a condition that tells them apart may be missing. Equal values may be shown once. Records with an inconclusive call do not appear.
Test system: BDF1 mice, colon carcinoma 38 sc, T/C %
Test: NCI In Vivo Anticancer Drug Screen. Data for tumor model Colon Carcinoma 38 (subcutaneous) in B6D2F1 (BDF1) mice
Settings: endpoint: median tumor weight (est.), higher = larger tumour
How it was run: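 T/C readout: treated group (T) measurement over vehicle control group (C) measurement. Endpoint is survival or tumor size in mice bearing a transplanted tumor.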

[1] = dose: 6.25 mg/kg/injection, schedule: Q07DX002 (ip), vehicle: saline with Tween-80
[2] = dose: 12.5 mg/kg/injection, schedule: Q07DX002 (ip), vehicle: saline with Tween-80
[3] = dose: 25.0 mg/kg/injection, schedule: Q07DX002 (ip), vehicle: saline with Tween-80
[4] = dose: 25.0 mg/kg/injection, schedule: Q07DX002 (ip), vehicle: Klucel (hydroxypropylcellulose) (HPC)
[5] = dose: 50.0 mg/kg/injection, schedule: Q07DX002 (ip), vehicle: Klucel (hydroxypropylcellulose) (HPC)
[6] = dose: 100.0 mg/kg/injection, schedule: Q07DX002 (ip), vehicle: Klucel (hydroxypropylcellulose) (HPC)
[7] = dose: 200.0 mg/kg/injection, schedule: Q07DX002 (ip), vehicle: Klucel (hydroxypropylcellulose) (HPC)
[8] = dose: 400.0 mg/kg/injection, schedule: Q07DX002 (ip), vehicle: Klucel (hydroxypropylcellulose) (HPC)

## CC[C@@]1(O)C(=O)OCc2c1cc1n(c2=O)Cc2cc3ccccc3nc2-1
dose: 1.5 mg/kg/injection, schedule: Q07DX002 (ip), vehicle: saline with Tween-80
  T/C: 100 % of control
dose: 3.0 mg/kg/injection, schedule: Q07DX002 (ip), vehicle: saline with Tween-80
  T/C: 92 % of control
dose: 6.0 mg/kg/injection, schedule: Q07DX002 (ip), vehicle: saline with Tween-80
  T/C: 75 % of control
dose: 12.0 mg/kg/injection, schedule: Q07DX002 (ip), vehicle: saline with Tween-80
  T/C: 90 % of control
dose: 24.0 mg/kg/injection, schedule: Q07DX002 (ip), vehicle: saline with Tween-80
  T/C: 95 % of control

## O=C1C2CC=CCC2C(=O)N1SC(Cl)(Cl)Cl (configuration not stated)
dose: 3.12 mg/kg/injection, schedule: Q07DX002 (ip), vehicle: saline with Tween-80
  T/C: 107 % of control
[1]
  T/C: 110 % of control
[2]
  T/C: 99 % of control
[3]
  T/C: 84 % of control

## c1ccc2sc(SSN3CC4CCC(CC4)C3)nc2c1
[2]
  T/C: 110 % of control and 85 % of control
[3]
  T/C: 82 % of control and 93 % of control
dose: 100.0 mg/kg/injection, schedule: Q07DX002 (ip), vehicle: saline with Tween-80
  T/C: 63 % of control and 64 % of control
dose: 200.0 mg/kg/injection, schedule: Q07DX002 (ip), vehicle: saline with Tween-80
  T/C: 113 % of control and 115 % of control

## C[C@]12C=CC(=O)C=C1CC[C@@H]1[C@@H]2C(=O)C[C@@]2(C)[C@H]1CC[C@]2(O)C(=O)CO
dose: 12.5 mg/kg/injection, schedule: Q07DX002 (ip), vehicle: Klucel (hydroxypropylcellulose) (HPC)
  T/C: 108 % of control
[4]
  T/C: 115 % of control
dose: 25.0 mg/kg/injection, schedule: Q07DX003 (ip), vehicle: Klucel (hydroxypropylcellulose) (HPC)
  T/C: 97 % of control
[5]
  T/C: 93 % of control and 102 % of control
dose: 50.0 mg/kg/injection, schedule: Q07DX003 (ip), vehicle: Klucel (hydroxypropylcellulose) (HPC)
  T/C: 100 % of control
[6]
  T/C: 110 % of control
dose: 100.0 mg/kg/injection, schedule: Q07DX003 (ip), vehicle: Klucel (hydroxypropylcellulose) (HPC)
  T/C: 76 % of control
[7]
  T/C: 81 % of control and 101 % of control
dose: 200.0 mg/kg/injection, schedule: Q07DX003 (ip), vehicle: Klucel (hydroxypropylcellulose) (HPC)
  T/C: 88 % of control
dose: 400.0 mg/kg/injection, schedule: Q07DX003 (ip), vehicle: Klucel (hydroxypropylcellulose) (HPC)
  T/C: 45 % of control
dose: 800.0 mg/kg/injection, schedule: Q07DX002 (ip), vehicle: Klucel (hydroxypropylcellulose) (HPC)
  T/C: 60 % of control
dose: 1200.0 mg/kg/injection, schedule: Q07DX002 (ip), vehicle: Klucel (hydroxypropylcellulose) (HPC)
  T/C: 80 % of control

## COc1c(O)c2c(c3cc(C(=O)N4CCc5c4c(O)c(OC)c4[nH]c(C(=O)N6CC7CC78C6=CC(=O)c6[nH]cc(C)c68)cc54)[nH]c13)CCN2C(N)=O (configuration not stated)
dose: 6.25 micrograms/kg/injection, schedule: Q07DX002 (ip), vehicle: DMSO
  T/C: 122 % of control
dose: 25.0 micrograms/kg/injection, schedule: Q07DX002 (ip), vehicle: DMSO
  T/C: 109 % of control
dose: 50.0 micrograms/kg/injection, schedule: Q07DX002 (ip), vehicle: DMSO
  T/C: 89 % of control
dose: 67.0 micrograms/kg/injection, schedule: Q07DX002 (ip), vehicle: other
  T/C: 89 % of control
dose: 100.0 micrograms/kg/injection, schedule: Q07DX002 (ip), vehicle: other
  T/C: 37 % of control

## COCC1OC2OC3C(COC)OC(OC4C(COC)OC(OC5C(COC)OC(OC6C(COC)OC(OC7C(COC)OC(OC8C(COC)OC(OC1C(O)C2O)C(O)C8O)C(O)C7O)C(O)C6O)C(O)C5O)C(O)C4O)C(O)C3O (configuration not stated) (tested in a mixture with another compound)
[4]
  T/C: 72 % of control
[5]
  T/C: 68 % of control
[6]
  T/C: 53 % of control
[7]
  T/C: 69 % of control
[8]
  T/C: 95 % of control

## O=C(O)Cc1cc(O)cc2c(=O)cc(-c3ccccc3)oc12
[6]
  T/C: 52 % of control
[7]
  T/C: 63 % of control
[8]
  T/C: 103 % of control

## CN1CCN(CCCN2c3ccccc3Sc3ccc(C(F)(F)F)cc32)CC1
[1]
  T/C: 104 % of control
dose: 6.25 mg/kg/injection, schedule: Q07DX002 (ip), vehicle: saline
  T/C: 116 % of control
dose: 12.5 mg/kg/injection, schedule: Q07DX002 (ip), vehicle: saline
  T/C: 112 % of control
[3]
  T/C: 91 % of control
dose: 25.0 mg/kg/injection, schedule: Q07DX002 (ip), vehicle: saline
  T/C: 97 % of control
dose: 50.0 mg/kg/injection, schedule: Q07DX002 (ip), vehicle: saline with Tween-80
  T/C: 96 % of control
dose: 50.0 mg/kg/injection, schedule: Q07DX002 (ip), vehicle: saline
  T/C: 90 % of control
dose: 100.0 mg/kg/injection, schedule: Q07DX002 (ip), vehicle: saline
  T/C: 96 % of control
dose: 200.0 mg/kg/injection, schedule: Q07DX002 (ip), vehicle: saline
  T/C: 74 % of control

Source: PubChem BioAssay AID212 (DTP/NCI, 2004)
